In US20240132484A1, “BROAD SPECTRUM ANTIVIRAL COMPOUNDS TARGETING THE SKI COMPLEX” (priority 2020, published 2024):
Several values for one entry are separate records, joined by “and”; a condition that tells them apart may be missing. Equal values may be shown once. Read-outs that look alike come from different tables or passages of the source.

Columns and labels:
[1] = molecular target: WDR61 (Homo sapiens, UniProt Q9GZS3); experiment: Surface Plasmon Resonance with pure WDR61 protein
[2] = system: SARS2; format: cell-based, SARS-CoV-2; conditions: for Percentage Infection Relative to Appropriate DMSO Control / Infection Data: Percentage Infection Relative to Appropriate DMSO Control / Percentage Infection Relative to Appropriate DMSO Control, Mean / Infection Data, Percentage Infection Relative to Appropriate DMSO Control: avg background subtraction; for Infection Data: Percentage Infection Relative to Appropriate DMSO Control: replicate wells; for Infection Data: Average, Mean: average of Exp 1-3 (SMW475, SMW477, SMW478), n 9; for Infection Data, Average, Mean percentage infection relative to DMSO control: Average of Exp 1 (SMW491) and Exp 2 (SMW492); for Percentage Infection Relative to Appropriate DMSO Control, Mean: Average of Exp 1 and Exp 2, n=4; for Infection Data, Percentage Infection Relative to Appropriate DMSO Control: single well

COc1ccc(CNCCc2ccccc2F)c(OCC(O)CN2CCN(C)CC2)c1 (racemic) [UMB18G]
direct binding to WDR61 by SPR [1]: binding directly to WDR61 | Percentage Infection Relative to Appropriate DMSO Control ([2]; 1 uM, Exp 1 (SMW454), single wells): 79.68% and 100.00% and 102.30% | Infection Data: Percentage Infection Relative to Appropriate DMSO Control ([2]; 1 uM, Exp 1 (SMW475)): 59.52% and 81.22% and 48.39% | Infection Data: Percentage Infection Relative to Appropriate DMSO Control ([2]; 1 uM, Exp 2 (SMW477)): 30.54% and 44.61% and 49.97% | Infection Data: Percentage Infection Relative to Appropriate DMSO Control ([2]; 1 uM, Exp 3 (SMW478)): 92.92% and 83.96% and 93.97% | Infection Data: Average, Mean ([2]; 1 uM): 65.01% | Percentage Infection Relative to Appropriate DMSO Control ([2]; 5 uM, Exp 1 (SMW454), single wells): 82.33% and 99.01% and 94.32% | Infection Data: Percentage Infection Relative to Appropriate DMSO Control ([2]; 5 uM, Exp 1 (SMW475)): 11.41% and 21.71% and 5.92% | Infection Data: Percentage Infection Relative to Appropriate DMSO Control ([2]; 5 uM, Exp 2 (SMW477)): 9.13% and 26.77% and 20.94% | Infection Data: Percentage Infection Relative to Appropriate DMSO Control ([2]; 5 uM, Exp 3 (SMW478)): 28.65% and 43.74% and 34.06% | Infection Data: Average, Mean ([2]; 5 uM): 22.48% | Percentage Infection Relative to Appropriate DMSO Control ([2]; 10 uM, Exp 1 (SMW454), single wells): 84.64% and 105.70% and 105.02% | Infection Data: Percentage Infection Relative to Appropriate DMSO Control ([2]; 10 uM, Exp 1 (SMW475)): 7.16% and 14.38% and 4.59% | Infection Data: Percentage Infection Relative to Appropriate DMSO Control ([2]; 10 uM, Exp 2 (SMW477)): 10.76% and 16.40% and 10.07% | Infection Data: Percentage Infection Relative to Appropriate DMSO Control ([2]; 10 uM, Exp 3 (SMW478)): 46.05% and 27.62% and 30.93% | Infection Data: Average, Mean ([2]; 10 uM): 18.66% | Percentage Infection Relative to Appropriate DMSO Control ([2]; 25 uM, Exp 1 (SMW454), single wells): 54.89% and 58.50% and 60.94% | Infection Data: Percentage Infection Relative to Appropriate DMSO Control ([2]; 25 uM, Exp 1 (SMW475)): 0.07% and −0.35% and −1.40% | Infection Data: Percentage Infection Relative to Appropriate DMSO Control ([2]; 25 uM, Exp 2 (SMW477)): 1.11% and 0.67% and 1.76% | Infection Data: Percentage Infection Relative to Appropriate DMSO Control ([2]; 25 uM, Exp 3 (SMW478)): 3.99% and 4.14% and 2.78% | Infection Data: Average, Mean ([2]; 25 uM): 1.42% | Percentage Infection Relative to Appropriate DMSO Control ([2]; 50 uM, Exp 1 (SMW454), single wells): 28.95% and 40.45% and 40.98% | Infection Data: Percentage Infection Relative to Appropriate DMSO Control ([2]; 50 uM, Exp 1 (SMW475)): −0.48% and −1.48% and 0.34% | Infection Data: Percentage Infection Relative to Appropriate DMSO Control ([2]; 50 uM, Exp 2 (SMW477)): 1.36% and 0.07% and 1.60% | Infection Data: Percentage Infection Relative to Appropriate DMSO Control ([2]; 50 uM, Exp 3 (SMW478)): 0.69% and 2.33% and 1.45% | Infection Data: Average, Mean ([2]; 50 uM): 0.65% | Infection Data, Average, Mean percentage infection relative to DMSO control ([2]; n=4, 1 uM): 65.84% and 39.37% and 49.93% and 57.24% | Infection Data, Average, Mean percentage infection relative to DMSO control ([2]; n=4, 5 uM): 54.32% and 40.70% and 42.82% and 28.04% | Infection Data, Average, Mean percentage infection relative to DMSO control ([2]; n=4, 10 uM): 8.53% and 5.08% and 5.96% and 7.33% | Infection Data, Average, Mean percentage infection relative to DMSO control ([2]; n=4, 25 uM): 11.20% and 7.36% and 4.36% and 11.41% | Infection Data, Average, Mean percentage infection relative to DMSO control ([2]; n=4, 50 uM): 8.04% and 0.83% and 7.39% and 10.06% | Infection Data, Average, Mean ([2]; Average of Exp 1-3, n 9, 1 uM): 79.70% | Infection Data, Average, Mean ([2]; Average of Exp 1-3, n 9, 5 uM): 44.64% | Infection Data, Average, Mean ([2]; Average of Exp 1-3, n 9, 10 uM): 52.11% | Infection Data, Average, Mean ([2]; Average of Exp 1-3, n 9, 25 uM): 19.49% | Infection Data, Average, Mean ([2]; Average of Exp 1-3, n 9, 50 uM): 11.46% | Percentage Infection Relative to Appropriate DMSO Control, Mean ([2]; 1 uM): 59.34% and 41.11% | Percentage Infection Relative to Appropriate DMSO Control, Mean ([2]; 5 uM): 26.29% and 13.69% | Percentage Infection Relative to Appropriate DMSO Control, Mean ([2]; 10 uM): 6.07% and 4.47% | Percentage Infection Relative to Appropriate DMSO Control, Mean ([2]; 25 uM): 3.40% and 3.46% | Percentage Infection Relative to Appropriate DMSO Control, Mean ([2]; 50 uM): 2.64% and 2.63% | Infection Data, Percentage Infection Relative to Appropriate DMSO Control ([2]; Exp 1 (SMW491), 10 uM): 5.19% and 1.05% and 0.23% and 2.20% and 5.21% and 4.17% and 3.28% and 4.40% | Percentage Infection Relative to Appropriate DMSO Control ([2]; Exp 1 (SMW506), 10 uM, single wells): 6.99% and 10.55% and 9.19% and 3.42% | Percentage Infection Relative to Appropriate DMSO Control ([2]; Exp 1 (SMW506), 25 uM, single wells): 4.49% and 2.30% and 4.05% and 3.63% | Percentage Infection Relative to Appropriate DMSO Control ([2]; Exp 1 (SMW506), 50 uM, single wells): 4.22% and 4.54% and 5.07% and 2.41% | Percentage Infection Relative to Appropriate DMSO Control ([2]; Exp 2 (SMW466), 10 uM): 10.03% and 6.17% and 9.36% | Percentage Infection Relative to Appropriate DMSO Control ([2]; Exp 2 (SMW466), 25 uM): −0.69% and −1.02% and −1.54% | Percentage Infection Relative to Appropriate DMSO Control ([2]; Exp 2 (SMW466), 50 uM): −0.97% and −1.80% and 1.96% | Infection Data, Percentage Infection Relative to Appropriate DMSO Control ([2]; Exp 2 (SMW492), 1 uM): 87.68% and 68.32% and 72.99% and 69.05% and 75.23% and 75.22% and 50.23% and 54.62% | Infection Data, Percentage Infection Relative to Appropriate DMSO Control ([2]; Exp 2 (SMW492), 10 uM): 15.18% and 12.71% and 12.92% and 8.48% and 10.42% and 9.51% and 5.72% and 6.91% | Percentage Infection Relative to Appropriate DMSO Control ([2]; Exp 2 (SMW492), 1 uM, single wells): 34.50% and 31.39% and 22.69% and 24.33% | Percentage Infection Relative to Appropriate DMSO Control ([2]; Exp 2 (SMW492), 5 uM, single wells): 5.38% and 4.98% and 4.24% and 4.87% | Percentage Infection Relative to Appropriate DMSO Control ([2]; Exp 2 (SMW492), 10 uM, single wells): 3.43% and 3.30% and 3.52% and 1.74% | Percentage Infection Relative to Appropriate DMSO Control ([2]; Exp 2 (SMW492), 25 uM, single wells): 4.70% and 2.08% and 5.51% and 0.65%
